Patent US4414334A, “Oxygen scavenging with enzymes” (Phillips Petroleum Company, priority 1981, dated 1983)

What was measured:
[1] = target: alcohol oxidase (alcohol: oxygen oxidoreductase) isolated from Pichia pastoris (Komagataella phaffii, UniProt F2QY27)
[2] = substrate: CO; experiment: purified protein, by the assay type; conditions: other: Pichia pastoris alcohol oxidase; substrate methanol

Molecule: C=O [HCHO, formaldehyde]
- Inhibitors (inhibitory concentration of HCHO) ([1]; Table I lists HCHO as inhibitor at >30 mM): > 30 mM

Molecule: CO [methanol]
- Km ([1]; read-out: apparent Michaelis constant, Km, for methanol, substrate methanol): ~4 mM

B1: alcohol oxidase (alcohol: oxygen oxidoreductase) isolated from Pichia pastoris (Komagataella phaffii CBS 7435) (protein)
chain: AIPEEFDILVLGGGSSGSCIAGRLANLDHSLKVGLIEAGENNLNNPWVYLPGIYPRNMKLDSKTASFYTSNPSPHLNGRRAIVPCANVLGGGSSINFMMYTRGSASDYDDFQAEGWKTKDLLPLMKKTETYQRACNNPDIHGFEGPIKVSFGNYTYPVCQDFLRASESQGIPYVDDLEDLVTAHGAEHWLKWINRDTGRRSDSAHAFVHSTMRNHDNLYLICNTKVDKIIVEDGRAAAVRTVPSKPLNPKKPSHKIYRARKQIVLSCGTISSPLVLQRSGFGDPIKLRAAGVKPLVNLPGVGRNFQDHYCFFSPYRIKPQYESFDDFVRGDAEIQKRVFDQWYANGTGPLATNGIEAGVKIRPTPEELSQMDESFQEGYREYFEDKPDKPVMHYSIIAGFFGDHTKIPPGKYMTMFHFLEYPFSRGSIHITSPDPYAAPDFDPGFMNDERDMAPMVWAYKKSRETARRMDHFAGEVTSHHPLFPYSSEARALEMDLETSNAYGGPLNLSAGLAHGSWTQPLKKPTAKNEGHVTSNQVELHPDIEYDEEDDKAIENYIREHTETTWHCLGTCSIGPREGSKIVKWGGVLDHRSNVYGVKGLKVGDLSVCPDNVGCNTYTTALLIGEKTATLVGEDLGYSGEALDMTVPQFKLGTYEKTGLARF
- Km [2]: 4 mM
